US9302999B2, “Substituted triazoles as herbicides” (E. I. DU PONT DE NEMOURS AND COMPANY, priority 2012, dated 2016)

Columns and labels:
Format in all cases: in vivo
rice (Oryza sativa) = experiment: Test C flooded paddy test: rice; conditions: scale 0 to 100 (0 no effect, 100 complete control)
Text: (§1) Plant species in the flooded paddy test consisted of rice (Oryza sativa), sedge, umbrella (small-flower umbrella sedge, Cyperus difformis), ducksalad (Heteranthera limosa) and barnyardgrass (Echinochloa crus-galli) grown to the 2-leaf stage for testing. At time of treatment, test pots were flooded to 3 cm above the soil surface, treated by application of test compounds directly to the paddy water, and then maintained at that water depth for the duration of the test.
(§2) Treated plants and controls were maintained in a greenhouse for 13 to 15 days, after which time all species were compared to controls and visually evaluated. Plant response ratings, summarized in Table C, are based on a scale of 0 to 100 where 0 is no effect and 100 is complete control. A dash (-) response means no test result.

[1] = test system: pigweed (Amaranthus retroflexus); experiment: Test A pre-/postemergence: pigweed
Method in brief: (§3)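 Compounds, formulated with surfactant in non-phytotoxic solvent, were applied as a directed soil spray preemergence and as postemergence sprays to 2–10 cm, one- to two-leaf seedlings grown in loam soil blended with sand; visual injury, 0–100, assessed ~10 days post-treatment against untreated controls.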

[2] = test system: sedge, umbrella (small-flower umbrella sedge, Cyperus difformis); experiment: Test C flooded paddy test: sedge, umbrella; conditions: scale 0 to 100 (0 no effect, 100 complete control)
Text: as §1, §2

[3] = test system: velvetleaf (Abutilon theophrasti); experiment: Test A pre-/postemergence: velvetleaf
Method in brief: as §3

[4] = test system: ducksalad (Heteranthera limosa); experiment: Test C flooded paddy test: ducksalad; conditions: scale 0 to 100 (0 no effect, 100 complete control)
Text: as §1, §2

[5] = test system: barnyardgrass (Echinochloa crus-galli); experiment: Test A pre-/postemergence: barnyardgrass
Method in brief: as §3

[6] = test system: morningglory (Ipomoea spp.); experiment: Test A pre-/postemergence: morningglory
Method in brief: as §3

[7] = test system: wheat (Triticum aestivum); experiment: Test A pre-/postemergence: wheat
Method in brief: as §3

[8] = test system: foxtail, giant (giant foxtail, Setaria faberii); experiment: Test A pre-/postemergence: foxtail, giant; conditions: for Foxtail, Giant plant response rating: Postemergence; for Plant response rating, Foxtail, Giant: Preemergence
Method in brief: as §3

[9] = test system: barnyardgrass (Echinochloa crus-galli); experiment: Test C flooded paddy test: barnyardgrass; conditions: scale 0 to 100 (0 no effect, 100 complete control)
Text: as §1, §2

corn (Zea mays) = experiment: Test A pre-/postemergence: corn
Method in brief: as §3

[10] = test system: crabgrass, large (large crabgrass, Digitaria sanguinalis); experiment: Test A pre-/postemergence: crabgrass, large
Method in brief: as §3

[11] = Flood (flooded paddy test), 125 g ai/ha, visual rating after 13 to 15 days
[12] = Flood (flooded paddy test), 250 g ai/ha, visual rating after 13 to 15 days
[13] = Postemergence, 125 g ai/ha, 0 to 100 scale, 0 is no effect, 100 is complete control
[14] = Postemergence, 500 g ai/ha, visual rating on 0 to 100 scale (0 no effect, 100 complete control), approximately ten days
[15] = Preemergence, 125 g ai/ha, 0 to 100 scale where 0 is no effect and 100 is complete control
[16] = Preemergence, 500 g ai/ha, 0 to 100 scale (0 no effect, 100 complete control)
[17] = 125 g ai/ha, 0 to 100 scale, 0 is no effect, 100 is complete control
[18] = 500 g ai/ha, visual rating on 0 to 100 scale (0 no effect, 100 complete control), approximately ten days
[19] = Flood (flooded paddy test), 62 g ai/ha, visual rating after 13 to 15 days
[20] = Preemergence, 125 g ai/ha, 0 to 100 scale (0 no effect, 100 complete control)
[21] = Preemergence, 500 g ai/ha, 0 to 100 scale, 0 is no effect, 100 is complete control
[22] = Postemergence, 1000 g ai/ha, visual rating on 0 to 100 scale (0 no effect, 100 complete control), approximately ten days
[23] = Preemergence, 1000 g ai/ha, 0 to 100 scale, 0 is no effect, 100 is complete control

For `Cc1nn(-c2ccc(C(F)(F)F)cc2)nc1Oc1cccc(OC(F)(F)F)c1` [Compound 119], the “Plant response rating, Rice” value (rice (Oryza sativa); [11]) was 25, the “Plant response rating, Rice” value (rice (Oryza sativa); [12]) was 25 and the “Plant response rating, Rice” value (rice (Oryza sativa); Flood, 62 g ai/ha) was 15. For the same compound, the “Pigweed plant response rating” value [1, 13] was 70, the “Pigweed plant response rating” value [1, 14] was 100 and the “Plant response rating, Pigweed” value [1, 15] was 60. The “Plant response rating, Pigweed” value [1, 16] was 100, the “Plant response rating, Sedge, Umbrella” value [2, 11] was 85 and the “Plant response rating, Sedge, Umbrella” value [2, 12] was 85. The “Plant response rating, Sedge, Umbrella” value ([2]; Flood, 62 g ai/ha) was 75, the “Velvetleaf plant response rating” value [3, 13] was 20 and the “Velvetleaf plant response rating” value [3, 14] was 40. For the same compound, the “Plant response rating, Velvetleaf” value [3, 15] was 0, the “Plant response rating, Velvetleaf” value [3, 16] was 10 and the “Plant response rating, Ducksalad” value [4, 11] was 80. The “Plant response rating, Ducksalad” value [4, 12] was 80, the “Plant response rating, Ducksalad” value ([4]; Flood, 62 g ai/ha) was 50 and the “Barnyardgrass plant response rating” value [5, 13] was 10. The “Barnyardgrass plant response rating” value [5, 14] was 20, the “Plant response rating, Barnyardgrass” value [5, 15] was 0 and the “Plant response rating, Barnyardgrass” value [5, 16] was 30. For the same compound, the “Morningglory plant response rating” value [6, 13] was 20, the “Morningglory plant response rating” value [6, 14] was 70 and the “Plant response rating, Morningglory” value [6, 15] was 0. For the same compound, the “Plant response rating, Morningglory” value [6, 16] was 10, the “Wheat plant response rating” value [7, 13] was 0 and the “Wheat plant response rating” value [7, 14] was 10. For the same compound, the “Plant response rating, Wheat” value [7, 15] was 0, the “Plant response rating, Wheat” value [7, 16] was 0 and the “Foxtail, Giant plant response rating” value [8, 17] was 20. The “Foxtail, Giant plant response rating” value [8, 18] was 60, the “Plant response rating, Foxtail, Giant” value ([8]; 125 g ai/ha, 0 to 100 scale where 0 is no effect and 100 is complete control) was 50 and the “Plant response rating, Foxtail, Giant” value ([8]; 500 g ai/ha, 0 to 100 scale (0 no effect, 100 complete control)) was 100. The “Plant response rating, Barnyardgrass” value [9, 11] was 25, the “Plant response rating, Barnyardgrass” value [9, 12] was 30 and the “Plant response rating, Barnyardgrass” value ([9]; Flood, 62 g ai/ha) was 20. The “Corn plant response rating” value (corn (Zea mays); [13]) was 10, the “Corn plant response rating” value (corn (Zea mays); [14]) was 30 and the “Plant response rating, Corn” value (corn (Zea mays); [15]) was 0. For the same compound, the “Plant response rating, Corn” value (corn (Zea mays); [16]) was 0, the “Crabgrass, Large plant response rating” value [10, 13] was 40 and the “Crabgrass, Large plant response rating” value [10, 14] was 70. The “Plant response rating, Crabgrass, Large” value [10, 15] was 70 and the “Plant response rating, Crabgrass, Large” value [10, 16] was 100.

For `Cc1nn(-c2ccc(C(F)(F)F)cc2)nc1Cn1cnc(C(F)(F)F)c1Cl` [Compound 13], the “Plant response rating, Rice” value (rice (Oryza sativa); [19]) was 0, the “Plant response rating, Rice” value (rice (Oryza sativa); [12]) was 0 and the “Pigweed plant response rating” value [1, 13] was 0. For the same compound, the “Pigweed plant response rating” value [1, 14] was 0, the “Plant response rating, Pigweed” value [1, 20] was 0 and the “Plant response rating, Pigweed” value [1, 21] was 0. The “Plant response rating, Sedge, Umbrella” value [2, 19] was 0, the “Plant response rating, Sedge, Umbrella” value [2, 12] was 0 and the “Velvetleaf plant response rating” value [3, 13] was 0. The “Velvetleaf plant response rating” value [3, 14] was 0, the “Plant response rating, Velvetleaf” value [3, 20] was 0 and the “Plant response rating, Velvetleaf” value [3, 21] was 0. For the same compound, the “Plant response rating, Ducksalad” value [4, 19] was 0, the “Plant response rating, Ducksalad” value [4, 12] was 0 and the “Barnyardgrass plant response rating” value [5, 13] was 0. For the same compound, the “Barnyardgrass plant response rating” value [5, 14] was 0, the “Plant response rating, Barnyardgrass” value [5, 20] was 0 and the “Plant response rating, Barnyardgrass” value [5, 21] was 0. For the same compound, the “Morningglory plant response rating” value [6, 13] was 10, the “Morningglory plant response rating” value [6, 14] was 10 and the “Plant response rating, Morningglory” value [6, 20] was 0. The “Plant response rating, Morningglory” value [6, 21] was 0, the “Wheat plant response rating” value [7, 13] was 0 and the “Wheat plant response rating” value [7, 14] was 0. For the same compound, the “Plant response rating, Wheat” value [7, 20] was 0, the “Plant response rating, Wheat” value [7, 21] was 0 and the “Foxtail, Giant plant response rating” value [8, 17] was 0. For the same compound, the “Foxtail, Giant plant response rating” value [8, 18] was 10, the “Plant response rating, Foxtail, Giant” value ([8]; 125 g ai/ha, 0 to 100 scale (0 no effect, 100 complete control)) was 0 and the “Plant response rating, Foxtail, Giant” value ([8]; 500 g ai/ha, 0 to 100 scale, 0 is no effect, 100 is complete control) was 0. The “Plant response rating, Barnyardgrass” value [9, 19] was 0, the “Plant response rating, Barnyardgrass” value [9, 12] was 0 and the “Corn plant response rating” value (corn (Zea mays); [13]) was 0. For the same compound, the “Corn plant response rating” value (corn (Zea mays); [14]) was 0, the “Plant response rating, Corn” value (corn (Zea mays); [20]) was 0 and the “Plant response rating, Corn” value (corn (Zea mays); [21]) was 0. The “Crabgrass, Large plant response rating” value [10, 13] was 0, the “Crabgrass, Large plant response rating” value [10, 14] was 0 and the “Plant response rating, Crabgrass, Large” value [10, 20] was 0. The “Plant response rating, Crabgrass, Large” value [10, 21] was 0.

`FC(F)(F)c1ccc(-n2nc(Br)c(Cc3cccc(C(F)(F)F)c3)n2)nc1` [Compound 105] was tested, and the “Plant response rating, Rice” value (rice (Oryza sativa); [11]) was 0, the “Plant response rating, Rice” value (rice (Oryza sativa); [12]) was 0 and the “Plant response rating, Rice” value (rice (Oryza sativa); Flood, 31 g ai/ha) was 0. The “Plant response rating, Rice” value (rice (Oryza sativa); Flood, 62 g ai/ha) was 0, the “Pigweed plant response rating” value [1, 22] was 100 and the “Pigweed plant response rating” value [1, 23] was 90. For the same compound, the “Plant response rating, Sedge, Umbrella” value [2, 11] was 0, the “Plant response rating, Sedge, Umbrella” value [2, 12] was 0 and the “Plant response rating, Sedge, Umbrella” value ([2]; Flood, 31 g ai/ha) was 0. The “Plant response rating, Sedge, Umbrella” value ([2]; Flood, 62 g ai/ha) was 0, the “Velvetleaf plant response rating” value [3, 22] was 40 and the “Velvetleaf plant response rating” value [3, 23] was 10. The “Plant response rating, Ducksalad” value [4, 11] was 0, the “Plant response rating, Ducksalad” value [4, 12] was 0 and the “Plant response rating, Ducksalad” value ([4]; Flood, 31 g ai/ha) was 0. The “Plant response rating, Ducksalad” value ([4]; Flood, 62 g ai/ha) was 0, the “Barnyardgrass plant response rating” value [5, 22] was 10 and the “Barnyardgrass plant response rating” value [5, 23] was 10. For the same compound, the “Morningglory plant response rating” value [6, 22] was 90, the “Morningglory plant response rating” value [6, 23] was 10 and the “Wheat plant response rating” value [7, 22] was 0. For the same compound, the “Wheat plant response rating” value [7, 23] was 0, the “Plant response rating, Barnyardgrass” value [9, 11] was 0 and the “Plant response rating, Barnyardgrass” value [9, 12] was 0. The “Plant response rating, Barnyardgrass” value ([9]; Flood, 31 g ai/ha) was 0, the “Plant response rating, Barnyardgrass” value ([9]; Flood, 62 g ai/ha) was 0 and the “Corn plant response rating” value (corn (Zea mays); [22]) was 10. The “Corn plant response rating” value (corn (Zea mays); [23]) was 0, the “Crabgrass, Large plant response rating” value [10, 22] was 50 and the “Crabgrass, Large plant response rating” value [10, 23] was 50.
